assay: method code SF-AS, from PMID: 744242; settings: pH 5.6

logD | Structure (SMILES)
1.64 | Cn1nc2ccccc2n1
0.37 | NC(=O)CCCn1nnc2ccccc21
3.63 | CCCCCn1nc2ccccc2n1
2.2 | CCOC(=O)CCCCn1nnc2ccccc21
3.44 | CCCCC(C)n1nnc2ccccc21 (stereo not drawn)
2.57 | CCCCn1nnc2ccccc21
1.4 | OCCCn1nc2ccccc2n1
3.42 | CCCC(C)n1nc2ccccc2n1 (stereo not drawn)
1.3 | CCOC(=O)Cn1nnc2ccccc21
2.68 | CCOC(=O)CCCCCn1nnc2ccccc21
0.66 | NC(=O)CCn1nc2ccccc2n1
1.6 | CCOC(=O)CCn1nnc2ccccc21
3.22 | CCCCCn1nnc2ccccc21
3.17 | CCOC(=O)CCCCCn1nc2ccccc2n1
0.91 | OCCCn1nnc2ccccc21
2.85 | CCOC(=O)CCCCn1nc2ccccc2n1
0.79 | NC(=O)CCCCCn1nnc2ccccc21
2.95 | CCC(C)n1nc2ccccc2n1 (stereo not drawn)
0.28 | NC(=O)Cn1nc2ccccc2n1
2.1 | CCn1nc2ccccc2n1
2.54 | CC(C)n1nc2ccccc2n1
0.5 | OCCn1nnc2ccccc21

logD | Structure (SMILES)
1.98 | CC(C)n1nnc2ccccc21
4.24 | CCCCCCn1nc2ccccc2n1
1.86 | CCOC(=O)CCCn1nnc2ccccc21
2.31 | CCC(C)n1nnc2ccccc21 (stereo not drawn)
-0.11 | NC(=O)Cn1nnc2ccccc21
2.95 | CCCC(C)n1nnc2ccccc21 (stereo not drawn)
0.92 | OCCn1nc2ccccc2n1
2.13 | CCCn1nnc2ccccc21
0.78 | NC(=O)CCCn1nc2ccccc2n1
1.41 | NC(=O)CCCCCn1nc2ccccc2n1
2.12 | CCOC(=O)CCn1nc2ccccc2n1
1.85 | CCOC(=O)Cn1nc2ccccc2n1
0.58 | NC(=O)CCCCn1nnc2ccccc21
1.13 | Cn1nnc2ccccc21
3.78 | CCCCC(C)n1nc2ccccc2n1 (stereo not drawn)
2.41 | CCOC(=O)CCCn1nc2ccccc2n1
1.01 | NC(=O)CCCCn1nc2ccccc2n1
3.7 | CCCCCCn1nnc2ccccc21
1.58 | CCn1nnc2ccccc21
3.12 | CCCCn1nc2ccccc2n1
2.53 | CCCn1nc2ccccc2n1
